Key:
[1] = Freeze-thaw stability of QC stock solution in DMSO; assay type: physicochemical; details: stock 10 μM in DMSO at −20 °C
Description: Freeze-thaw stability of QC stock solution 10 μM at −20 °C was performed with stock solution that had underwent 0, 1 and 10 freeze-thaw cycles. Three samples per freeze-thaw cycle in MeOH:H2O 60%:40% were prepared at 100 nM and measured in duplicate. Four QC samples per concentration were prepared in plasma. Four replicates per sample were frozen for 60 min at −20 °C. All samples were thawed at room temperature and frozen ones (cycle 1). Per four replicates and concentrations the samples were thawed and frozen further a second, third or fourth time. All samples were thawed at the same time for simultaneous assessment with a calibration curve.

[2] = Stability of QC samples in plasma during storage in different conditions; assay type: in vitro ADME, human
[3] = Plasma concentration curve after single oral intake of curcuminoid capsules; assay type: in vivo, human; details: three participants, 4 capsules containing 600 mg curcuminoids, versus untreated sample
Description: (§1) One mL TBME was added to the mixture. Feces samples were first diluted 10.000x (four steps of 1:10 dilution) with Bovine Serum Albumin (BSA) 2% in Milli-Q water to reduce matrix effects before 50 μL IS-mix 100uM was added to 100 μL feces dilution. A second 100 μL sample with IS solution was hydrolyzed with 50 μL 20 U/μl β-glucuronidase, vortexed and after this addition incubated for 1 h at 37 °C. Following 1 mL TBME was added. After shaking for 15 min at 480 rpm/min all samples were centrifuged at 18213×g during 1 min. The lower aqueous layer was frozen on dry-iced ethanol and the upper organic layer of approximately 1 mL was decanted into a fresh tube and dried under vacuum using a Speedvac at room temperature. Next, samples were reconstituted with 100 μL MeOH:H2O 60%:40%, vortexed and sonicated for 5 min. After centrifuge at 18213×g during 3 min the supernatant was ready for injection into the HPLC-MS/MS.
(§2) Data from three healthy male participants included from a study researching the bioavailability of curcumin formulations is presented to show the applicability of the method in real-life settings. The participants signed informed consent and followed diet restrictions to avoid any curcumin or piperine intake five days before the visit day to ensure that only curcumin and/or piperine from the curcumin capsules were observed. On the visit day a plasma concentration curve at t = 0, 0.25, 0.50, 0.75, 1, 1.5, 2, 4, 8 and 24 h, collection of 24-h urine and 48-h feces were taken after single oral intake of 4 commercially available soft capsules containing 600 mg curcuminoids (curcumin, demethoxycurcumin and bisdemethoxycurcumin with 95% purity). The trial has been approved by the local institutional ethics committee and has been registered in the Dutch Clinical Trial Register under registration number NL6552. Each individual sample was analyzed according to the method described above.

[4] = 24-h urine concentration after single oral intake of curcuminoid capsules; assay type: in vivo, human; details: three participants, 4 capsules containing 600 mg curcuminoids, versus untreated sample
Description: as §1, §2

[5] = 48-h feces concentration after single oral intake of curcuminoid capsules; assay type: in vivo, human; details: 4 capsules containing 600 mg curcuminoids
Description: as §1, §2

[6] = test system: retinal pigmented epithelial cells and retinal endothelial cells; design: method as in PMID 30013474; details: 10 μM; cited from earlier work
SW620 cells = test system: SW620 cells; design: method as in PMID 33812170; details: 10 μM, incubated for 2 days; cited from earlier work
pancreatic cancer = test system: pancreatic cancer; design: method as in PMID 18628464; details: Phase II; cited from earlier work
[7] = design: method as in PMID 9619120; details: rats; addition of 20 mg/kg piperine; cited from earlier work
[8] = QC 10, Room temperature - light
[9] = QC 50, Room temperature - light
[10] = QC 100, Room temperature - dark
[11] = QC 100, Room temperature - light

Compound	Freeze-thaw stability, concentration relative to nominal ([1]; QC 100 nM 0x thawed) [%]	Freeze-thaw stability, concentration relative to nominal ([1]; QC 100 nM 1x thawed) [%]	Freeze-thaw stability, concentration relative to nominal ([1]; QC 100 nM 10x thawed) [%]	Stability sample during storage ([2]; QC 10, AS (reference)) [%]	Stability sample during storage ([2]; QC 10, On ice - dark) [%]	Stability sample during storage ([2]; QC 10, Room temperature - dark) [%]	Stability sample during storage [2, 8] [%]	Stability sample during storage ([2]; QC 50, AS (reference)) [%]	Stability sample during storage ([2]; QC 50, On ice - dark) [%]	Stability sample during storage ([2]; QC 50, Room temperature - dark) [%]	Stability sample during storage [2, 9] [%]	Stability sample during storage ([2]; QC 100, AS (reference)) [%]	Stability sample during storage ([2]; QC 100, On ice - dark) [%]	Stability sample during storage [2, 10] [%]	Stability sample during storage [2, 11] [%]	Plasma peak concentrations after treatment with β-glucuronidase [3]	Urine concentrations after treatment with β-glucuronidase [4]	Percentage in feces of the total expected dosage [5]	also measured
O=C(/C=C/c1ccc(O)cc1)CC(=O)/C=C/c1ccc(O)cc1 [Bisdemethoxy-curcumin, bisdemethoxycurcumin]	100	100.7	97.1	100	90	95	88	100	90	92	89	100	84	84	82	increase	increase	13%	–
COc1cc(/C=C/C(=O)CC(=O)/C=C/c2ccc(O)c(OC)c2)ccc1O [Curcumin, curcumin]	100	99.8	96.8	100	76	83	82	100	89	94	91	100	87	90	89	increase	increase	roughly 21.7%	ROS concentration [6]: decrease; TNF-α release [6]: decrease; Phosphorylation levels of ERK and STAT1 (SW620 cells): significantly downregulated; Anecdotal beneficial effect, treated patients (pancreatic cancer): two out of 21
O=C(/C=C/C=C/c1ccc2c(c1)OCO2)N1CCCCC1 [Piperine-135, piperine]	100	101.8	101.7	100	77	78	77	100	90	85	90	100	89	85	85	–	–	–	Increase of bioavailability of curcumin [7]: 154%
COc1cc(CCC(=O)CC(=O)CCc2ccc(O)c(OC)c2)ccc1O [Tetrahydrocurcumin]	100	101.0	100.0	100	96	89	88	100	99	93	93	100	94	88	87	increase	increase	–	Presence in feces [5]: No tetrahydrocurcumin was found
demethoxycurcumin [Demethoxy-curcumin]	100	102.2	103.1	100	93	95	87	100	96	100	93	100	91	95	89	increase	increase	24.7%	–

Source: publication PMC10149208, “A validated HPLC-MS/MS method for simultaneously analyzing curcumin, demethoxycurcumin, bisdemethoxycurcumin, tetra-hydrocurcumin and piperine in human plasma, urine or feces” (Heliyon, 2023)
